US9085550B2, “Ligands for estrogen related receptors and methods for synthesis of said ligands” (CITY OF HOPE, priority 2005, dated 2015)

Columns and labels:
[1] = biological target: T1, GAL-hERRa (human ERRα ligand binding domain fused to GAL4 DNA binding domain) (Homo sapiens, UniProt P11474); experiment: GAL4 reporter transactivation assay in CV-1 cells, GAL-hERRa; assay type: cell-based; conditions: for Fold activation, GAL-hERRa + PGC-1a / Fold activation, GAL-hERRa: CV-1; for Fold activation, GAL-hERRa + PGC-1a: reporter 0.42:vector 0.00875:PGC-1a 0.035; for Fold activation, GAL-hERRa: reporter 0.42:vector 0.00875, no PGC-1a; for Activation of ERRα: in the presence of PGC-1a
T1 construct: expressed in transfected cells; host or cells: CV-1
T1 sequence (P11474 193-421 limits assumed): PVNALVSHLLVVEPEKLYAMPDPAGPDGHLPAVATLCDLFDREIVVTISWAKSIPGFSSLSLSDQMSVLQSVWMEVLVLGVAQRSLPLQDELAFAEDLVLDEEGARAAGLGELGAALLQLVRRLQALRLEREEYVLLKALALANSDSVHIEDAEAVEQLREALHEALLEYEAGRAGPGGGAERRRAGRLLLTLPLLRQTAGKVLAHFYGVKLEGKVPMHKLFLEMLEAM

[2] = biological target: T2, GAL-L-hERRb (human ERRβ ligand binding domain fused to GAL4 DNA binding domain) (Homo sapiens, UniProt O95718); experiment: GAL4 reporter transactivation assay in CV-1 cells, GAL-L-hERRb; assay type: cell-based; conditions: for Fold activation, GAL-L-hERRb + PGC-1a / Fold activation, GAL-L-hERRb: CV-1; for Fold activation, GAL-L-hERRb + PGC-1a: reporter 0.42:vector 0.00875:PGC-1a 0.035; for Fold activation, GAL-L-hERRb: reporter 0.42:vector 0.00875, no PGC-1a; for Activation of ERRβ: in the presence of PGC-1a
T2 construct: expressed in transfected cells; host or cells: CV-1
T2 sequence (O95718 208-432 limits assumed): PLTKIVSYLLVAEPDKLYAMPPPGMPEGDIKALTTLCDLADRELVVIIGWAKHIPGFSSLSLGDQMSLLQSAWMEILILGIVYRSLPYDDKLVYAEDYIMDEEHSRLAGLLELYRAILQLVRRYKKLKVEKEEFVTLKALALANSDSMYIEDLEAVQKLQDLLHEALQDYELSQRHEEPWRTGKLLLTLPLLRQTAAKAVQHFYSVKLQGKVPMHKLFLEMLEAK

human ERβ = biological target: T3, human ERβ (Homo sapiens, UniProt Q92731); experiment: ERE-TK-luc reporter transactivation assay in CV-1 cells, full-length hERb; assay type: cell-based; conditions: for Fold Activation, ERE-TK-luc, hERb: Table 7, CV-1, drug conc 30 μM; for Activation of ERb: specificity for ERRs
T3 construct: Human ERα and ERβ were examined as full-length proteins using an estrogen receptor responsive reporter construct; expressed in transfected cells; host or cells: CV-1
Method: Human ERα and ERβ were examined as full-length proteins using an estrogen receptor responsive reporter construct.
Suitable reporter gene constructs are well known to skilled workers in the fields of biochemistry and molecular biology. […] Other vectors known in the art can be used in the methods of the present invention.
CV-1 cells for the activation assays were grown in Dulbecco's modified Eagle's medium supplemented with 10% resin charcoal-stripped fetal bovine serum, 50 U/ml penicillin G and 50 μg/ml streptomycin sulfate (DMEM-FBS) at 37° C. in 5% CO2. One day prior to transfection, cells were plated to 50-80% confluence using phenol red free DMEM-FBS.

[3] = biological target: T4, HRHN-GAL (yeast GAL4 DNA binding domain without receptor sequences) (Saccharomyces cerevisiae, UniProt P04386); experiment: GAL4 reporter transactivation assay in CV-1 cells, control vector without receptor; assay type: cell-based, monkey; conditions: for Fold activation, HRHN-GAL: reporter 0.42:vector 0.00875, no PGC-1a
T4 construct: expressed in transfected cells; host or cells: CV-1

[4] = reporter 0.42:vector 0.00875:PGC-1a 0.035, 1 μM
[5] = reporter 0.42:vector 0.00875:PGC-1a 0.035, 3 μM (first 3 μM column)
[6] = reporter 0.42:vector 0.00875:PGC-1a 0.035, 3 μM (second 3 μM column)
[7] = reporter 0.42:vector 0.00875:PGC-1a 0.035, 10 μM
[8] = reporter 0.42:vector 0.00875:PGC-1a 0.035, 30 μM

T4 sequence (P04386 1-147): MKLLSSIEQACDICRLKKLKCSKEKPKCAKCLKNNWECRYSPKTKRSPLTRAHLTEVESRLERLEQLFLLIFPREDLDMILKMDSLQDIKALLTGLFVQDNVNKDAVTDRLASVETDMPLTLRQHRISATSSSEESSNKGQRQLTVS
T3 sequence (Q92731 whole entry): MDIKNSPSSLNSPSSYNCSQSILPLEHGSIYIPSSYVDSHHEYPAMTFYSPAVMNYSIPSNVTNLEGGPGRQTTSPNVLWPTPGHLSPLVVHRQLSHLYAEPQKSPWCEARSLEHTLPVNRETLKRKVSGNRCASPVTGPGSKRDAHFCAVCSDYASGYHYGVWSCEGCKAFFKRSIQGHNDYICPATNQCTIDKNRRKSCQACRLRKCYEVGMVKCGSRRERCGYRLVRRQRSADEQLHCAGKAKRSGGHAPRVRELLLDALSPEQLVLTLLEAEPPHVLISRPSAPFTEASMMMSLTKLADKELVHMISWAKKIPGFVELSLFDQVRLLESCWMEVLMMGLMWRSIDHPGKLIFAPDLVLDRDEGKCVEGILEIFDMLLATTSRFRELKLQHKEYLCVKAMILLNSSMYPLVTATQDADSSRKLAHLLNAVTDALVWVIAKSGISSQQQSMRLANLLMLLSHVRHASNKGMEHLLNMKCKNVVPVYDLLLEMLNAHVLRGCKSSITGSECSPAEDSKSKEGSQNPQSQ

SMILES	Fold activation, GAL-hERRa + PGC-1a ([1]; 1 μM)	Fold activation, GAL-hERRa + PGC-1a ([1]; 3 μM (first 3 μM column))	Fold activation, GAL-hERRa + PGC-1a ([1]; 3 μM (second 3 μM column))	Fold activation, GAL-hERRa + PGC-1a ([1]; 10 μM)	Fold activation, GAL-hERRa + PGC-1a ([1]; 30 μM)	Fold activation, GAL-hERRa ([1]; 1 μM)	Fold activation, GAL-hERRa ([1]; 3 μM (first 3 μM column))	Fold activation, GAL-hERRa ([1]; 3 μM (second 3 μM column))	Fold activation, GAL-hERRa ([1]; 10 μM)	Fold activation, GAL-hERRa ([1]; 30 μM)	Activation of ERRα [1]	Fold activation, GAL-L-hERRb + PGC-1a ([2]; 1 μM)	Fold activation, GAL-L-hERRb + PGC-1a ([2]; 3 μM (first 3 μM column))	Fold activation, GAL-L-hERRb + PGC-1a ([2]; 3 μM (second 3 μM column))	Fold activation, GAL-L-hERRb + PGC-1a ([2]; 10 μM)	Fold activation, GAL-L-hERRb + PGC-1a ([2]; 30 μM)	Fold activation, GAL-L-hERRb ([2]; 1 μM)	Fold activation, GAL-L-hERRb ([2]; 3 μM (first 3 μM column))	Fold activation, GAL-L-hERRb ([2]; 3 μM (second 3 μM column))	Fold activation, GAL-L-hERRb ([2]; 10 μM)	other results
O=C(NN=Cc1ccccc1)c1ccc(O)cc1 [DY162, 4-Hydroxy-benzoic acid benzylidene-hydrazide]	1.22 fold	2.11 fold	1.93 fold	2.18 fold	2.36 fold	0.86 fold	0.89 fold	1.51 fold	1.82 fold	2.03 fold	can activate	0.78 fold	1.06 fold	1.65 fold	1.79 fold	2.61 fold	1.05 fold	0.87 fold	0.96 fold	1.57 fold	Fold activation, GAL-hERRa + PGC-1a ([1]; 0.3 μM): 1.26 fold; Fold activation, GAL-hERRa ([1]; 0.3 μM): 0.77 fold; Fold activation, GAL-L-hERRb + PGC-1a ([2]; 0.3 μM): 0.77 fold; Fold activation, GAL-L-hERRb ([2]; 0.3 μM): 1.09 fold; Fold activation, GAL-L-hERRb ([2]; 30 μM): 1.48 fold; Activation of ERRβ [2]: can activate; Fold Activation, ERE-TK-luc, hERb (human ERβ): 1.74 fold; Activation of ERb (human ERβ): do not activate; Fold activation, HRHN-GAL ([3]; 0.3 μM): 1.14 fold; Fold activation, HRHN-GAL ([3]; 1 μM): 1.07 fold; Fold activation, HRHN-GAL ([3]; 3 μM (first 3 μM column)): 1.02 fold; Fold activation, HRHN-GAL ([3]; 3 μM (second 3 μM column)): 1.12 fold; Fold activation, HRHN-GAL ([3]; 10 μM): 1.26 fold; Fold activation, HRHN-GAL ([3]; 30 μM): 1.25 fold; Fold activation, HRHN-GAL + PGC-1a ([3]; reporter 0.42:vector 0.00875:PGC-1a 0.035, 0.3 μM): 1.26 fold; Fold activation, HRHN-GAL + PGC-1a [3, 4]: 1.17 fold; Fold activation, HRHN-GAL + PGC-1a [3, 5]: 1.13 fold; Fold activation, HRHN-GAL + PGC-1a [3, 6]: 1.97 fold; Fold activation, HRHN-GAL + PGC-1a [3, 7]: 1.68 fold; Fold activation, HRHN-GAL + PGC-1a [3, 8]: 1.93 fold
Cc1cccc(C=NNC(=O)c2ccc(O)cc2)c1 [DY159, 4-Hydroxy-benzoic acid (3-methyl-benzylidene)-hydrazide]	1.18 fold	1.69 fold	1.55 fold	2.02 fold	2.61 fold	1.03 fold	1.41 fold	1.23 fold	1.64 fold	2.41 fold	can activate	1.38 fold	1.79 fold	1.47 fold	1.89 fold	2.45 fold	1.29 fold	1.25 fold	0.98 fold	1.33 fold	Fold activation, GAL-L-hERRb ([2]; 30 μM): 1.36 fold; Activation of ERRβ [2]: can activate; Fold Activation, ERE-TK-luc, hERb (human ERβ): 1.93 fold; Activation of ERb (human ERβ): do not activate; Fold activation, HRHN-GAL ([3]; 1 μM): 0.95 fold; Fold activation, HRHN-GAL ([3]; 3 μM (first 3 μM column)): 1.08 fold; Fold activation, HRHN-GAL ([3]; 3 μM (second 3 μM column)): 1.25 fold; Fold activation, HRHN-GAL ([3]; 10 μM): 1.24 fold; Fold activation, HRHN-GAL ([3]; 30 μM): 1.26 fold; Fold activation, HRHN-GAL + PGC-1a [3, 4]: 1.31 fold; Fold activation, HRHN-GAL + PGC-1a [3, 5]: 1.05 fold; Fold activation, HRHN-GAL + PGC-1a [3, 6]: 1.03 fold; Fold activation, HRHN-GAL + PGC-1a [3, 7]: 1.39 fold; Fold activation, HRHN-GAL + PGC-1a [3, 8]: 1.11 fold; melting point: 241.9 °C
